The structures appear in SMILES notation.

In general, inhibition refers to the share of the control response that was lost under treatment.

Details of data set [1]: method as in PMID 9827549. As to conditions: rat; oral 50 μmol/kg (~14.3 mg/kg) in propyleneglycol; cited from earlier work.
The test system of a further data set is PC-3 cells. Description: Scratch wound healing assay in PC-3 cells. Type of data set: cell-based, human. As to conditions: 10 and 30 μM; 48 h post-wound. On the procedure:
PC-3 cells were cultured in a 96-well plate until they reached ~80% confluence as a monolayer and then the cell layer was wounded using a 96-Well WoundMaker (Essen BioScience, MI) and washed twice with fresh serum free media. The cells were incubated with serum free medium, and images of the wounds were taken using the IncuCyte ZOOM (Essen BioScience, MI). The wound recovery properties of test compounds were analyzed by the IncuCyte software.

Another data set relates to LNCaP. Further details: method as in PMID 18008333, PMID 23300633. As to conditions: intraperitoneal 50 mg/kg; LNCaP xenograft mouse; cited from earlier work.
In the next data set the target is T1, ANO1 (Homo sapiens, UniProt Q5XXA6, DEL476-501).
T1 sequence (Q5XXA6 with tags, fused parts or gaps isoform Q5XXA6-5 DEL539-564): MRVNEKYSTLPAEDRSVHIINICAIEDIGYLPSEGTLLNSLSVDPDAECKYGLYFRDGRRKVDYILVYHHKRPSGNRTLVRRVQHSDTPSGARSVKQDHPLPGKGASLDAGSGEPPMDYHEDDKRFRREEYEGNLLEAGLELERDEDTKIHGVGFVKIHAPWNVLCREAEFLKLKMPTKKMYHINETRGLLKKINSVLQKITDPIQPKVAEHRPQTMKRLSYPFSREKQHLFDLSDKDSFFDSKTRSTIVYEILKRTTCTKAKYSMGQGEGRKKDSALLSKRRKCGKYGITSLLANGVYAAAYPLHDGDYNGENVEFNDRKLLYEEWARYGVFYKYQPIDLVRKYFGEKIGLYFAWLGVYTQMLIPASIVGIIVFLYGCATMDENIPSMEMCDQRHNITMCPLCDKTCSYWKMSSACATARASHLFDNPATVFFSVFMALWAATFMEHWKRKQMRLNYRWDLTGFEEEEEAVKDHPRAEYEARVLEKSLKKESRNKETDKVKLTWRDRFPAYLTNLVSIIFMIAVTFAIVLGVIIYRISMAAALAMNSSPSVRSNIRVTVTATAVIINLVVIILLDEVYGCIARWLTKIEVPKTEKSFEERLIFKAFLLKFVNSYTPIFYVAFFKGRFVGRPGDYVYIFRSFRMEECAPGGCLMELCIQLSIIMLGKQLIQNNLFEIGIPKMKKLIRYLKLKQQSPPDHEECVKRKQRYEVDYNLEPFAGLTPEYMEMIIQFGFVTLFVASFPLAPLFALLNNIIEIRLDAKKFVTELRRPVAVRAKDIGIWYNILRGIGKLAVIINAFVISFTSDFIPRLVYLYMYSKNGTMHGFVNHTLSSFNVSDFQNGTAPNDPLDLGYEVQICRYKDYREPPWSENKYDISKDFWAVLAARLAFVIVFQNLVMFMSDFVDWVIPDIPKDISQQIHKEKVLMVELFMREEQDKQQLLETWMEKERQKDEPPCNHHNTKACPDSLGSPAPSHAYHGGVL
In words: Whole-cell patch-clamp in ANO1-expressing FRT cells. The class given is cell-based. As to conditions: 100 μM ATP, read-out: Inhibition of ANO1 chloride currents. Here is the method: Patch-clamp recordings were performed on ANO1-expressing FRT cells using the whole-cell recording configuration. The bath solution contained (in mM): 140 NMDG-Cl, 1 CaCl2, 1 MgCl2, 10 glucose and 10 HEPES (pH 7.4). The pipette solution contained (in mM): 130 CsCl, 0.5 EGTA, 1 MgCl2, 1 Tris-ATP, and 10 HEPES (pH 7.2). Pipettes were pulled from borosilicate glass and had resistances of 3–5 MΩ after fire polishing. Seal resistances were between 3 and 10 GΩ. The liquid junction potential (~2.4 mV) was not corrected. After establishing the whole-cell configuration, whole-cell capacitance and series resistance were compensated with the amplifier circuitry. After establishing the whole-cell configuration, ANO1 was activated by ATP (100 μM). Whole-cell currents were elicited by applying hyperpolarizing and depolarizing voltage pulses from a holding potential of 0 mV to potentials between -80 mV and +80 mV in steps of 20 mV. Recordings were made at room temperature using an Axopatch-200B (Axon Instruments, Union City, CA). Currents were digitized and analyzed using a Digidata 1440A converter (Axon Instruments), and pCLAMP 10.2 software (Molecular Devices, Sunnyvale, CA). Currents were low-pass filtered at 1 kHz and sampled at 5 kHz.

Consider `O=c1cc(-c2ccc(O)c(O)c2)oc2cc(O)cc(O)c12` [luteolin], for which, in data set [1], the “Maximum plasma level of free luteolin” value is reported as ~ 3.08 μM; the “Maximum plasma level of total luteolin (free luteolin and its conjugates)” value was ~ 15.5 μM. For the same molecule, in the data set on PC-3 cells, the “Inhibition of wound recovery, high versus low ANO1 expressing PC-3 cells” value is reported as “more strongly inhibited”. Besides, in the data set with LNCaP, the “Volume and weight of solid tumors” value is given as “significantly decreased”. Moreover, the inhibition at 10 µM on ANO1 (10 μM) was determined as 55.3 ± 2.8%. At ANO1 (100 μM), the inhibition at 100 µM amounted to 99.2 ± 0.2%.

The record behind these values is publication PMC5376326, “Inhibition of ANO1 by luteolin and its cytotoxicity in human prostate cancer PC-3 cells” (PLoS ONE, 2017).
